Assay results as given in PMC9482658, “Mechanistic understanding of human SLFN11” (Nature Communications, 2022).
Changes are numbered by the printed parent chain. Numbers in names are those of the source.

What was measured:
[1] = molecular target: T1, SLFN5 (Homo sapiens, UniProt Q08AF3); assay: nanoDSF thermal unfolding (Tycho NT.[…]); type: binding; conditions: 1 mM nucleotide, 300 nM protein; 25 mM Tris pH 7.5, 60 mM NaCl, 2 mM MgCl2, 1 mM DTT
T1 construct: recombinant
T1 sequence (Q08AF3 1-891): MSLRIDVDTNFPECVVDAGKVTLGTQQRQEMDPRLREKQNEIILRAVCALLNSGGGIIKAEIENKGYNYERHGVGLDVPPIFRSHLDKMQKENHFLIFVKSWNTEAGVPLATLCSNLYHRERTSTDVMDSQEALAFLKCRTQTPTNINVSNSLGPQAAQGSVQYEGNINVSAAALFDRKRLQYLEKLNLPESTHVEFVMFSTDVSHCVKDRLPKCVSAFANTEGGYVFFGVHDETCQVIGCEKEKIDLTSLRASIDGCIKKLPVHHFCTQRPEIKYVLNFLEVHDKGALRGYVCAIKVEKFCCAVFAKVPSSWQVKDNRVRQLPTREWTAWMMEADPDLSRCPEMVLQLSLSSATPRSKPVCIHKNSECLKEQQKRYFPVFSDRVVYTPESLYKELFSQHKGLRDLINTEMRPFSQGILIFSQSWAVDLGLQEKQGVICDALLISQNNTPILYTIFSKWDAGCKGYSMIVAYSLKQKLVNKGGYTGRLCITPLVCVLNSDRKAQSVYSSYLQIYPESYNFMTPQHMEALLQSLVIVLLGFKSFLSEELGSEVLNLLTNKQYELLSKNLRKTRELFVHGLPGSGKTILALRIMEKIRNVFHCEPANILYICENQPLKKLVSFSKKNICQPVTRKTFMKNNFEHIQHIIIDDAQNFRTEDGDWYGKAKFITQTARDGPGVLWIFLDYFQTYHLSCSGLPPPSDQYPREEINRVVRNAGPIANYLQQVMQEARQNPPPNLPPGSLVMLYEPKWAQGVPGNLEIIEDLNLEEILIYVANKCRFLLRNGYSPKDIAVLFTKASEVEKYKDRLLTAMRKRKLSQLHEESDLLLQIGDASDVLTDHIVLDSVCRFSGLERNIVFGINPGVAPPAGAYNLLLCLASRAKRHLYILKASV

[2] = molecular target: the molecule itself; assay: cryo-EM structure; SLFN11^E209A at 5 uM; 50 mM glycine pH 9, 200 mM NaCl, 2 mM MgCl2, 1 mM DTT; dimer reconstructed in C2 symmetry; monomer reconstructed from another dataset
[3] = molecular target: the molecule itself; assay: mass photometry; 50 nM SLFN11 in 25 mM Tris pH 7.5, 2 mM MgCl2, 1 mM DTT with variable concentrations of NaCl; 100 or 300 nM 60 nt ssDNA added in the stabilisation experiment; monomer-dimer equilibrium

For `Nc1ncnc2c1ncn2[C@@H]1O[C@H](COP(=O)(O)OP(=O)(O)OP(O)(O)=S)[C@@H](O)[C@H]1O` [ATPγS], the unfolding temperature increase [1] was “SLFN5 shows a significant increase in unfolding temperature in presence of ATP and ATPγS”.

`Nc1ncnc2c1ncn2[C@@H]1O[C@H](COP(=O)(O)OP(=O)(O)OP(=O)(O)O)[C@@H](O)[C@H]1O` [ATP] was tested, and the unfolding temperature increase [1] was “SLFN5 shows a significant increase in unfolding temperature in presence of ATP and ATPγS”.

B1: full-length human SLFN11 E209A (enzyme, UniProt Q7Z7L1 1-901, looked up)
chain: MEANQCPLVVEPSYPDLVINVGEVTLGEENRKKLQKIQRDQEKERVMRAACALLNSGGGVIRMAKKVEHPVEMGLDLEQSLRELIQSSDLQAFFETKQQGRCFYIFVKSWSSGPFPEDRSVKPRLCSLSSSLYRRSETSVRSMDSREAFCFLKTKRKPKILEEGPFHKIHKGVYQELPNSDPADPNSDPADLIFQKDYLEYGEILPFPASQLVEFKQFSTKHFQEYVKRTIPEYVPAFANTGGGYLFIGVDDKSREVLGCAKENVDPDSLRRKIEQAIYKLPCVHFCQPQRPITFTLKIVNVLKRGELYGYACMIRVNPFCCAVFSEAPNSWIVEDKYVCSLTTEKWVGMMTDTDPDLLQLSEDFECQLSLSSGPPLSRPVYSKKGLEHKKELQQLLFSVPPGYLRYTPESLWRDLISEHRGLEELINKQMQPFFRGILIFSRSWAVDLNLQEKPGVICDALLIAQNSTPILYTILREQDAEGQDYCTRTAFTLKQKLVNMGGYTGKVCVRAKVLCLSPESSAEALEAAVSPMDYPASYSLAGTQHMEALLQSLVIVLLGFRSLLSDQLGCEVLNLLTAQQYEIFSRSLRKNRELFVHGLPGSGKTIMAMKIMEKIRNVFHCEAHRILYVCENQPLRNFISDRNICRAETRKTFLRENFEHIQHIVIDEAQNFRTEDGDWYGKAKSITRRAKGGPGILWIFLDYFQTSHLDCSGLPPLSDQYPREELTRIVRNADPIAKYLQKEMQVIRSNPSFNIPTGCLEVFPEAEWSQGVQGTLRIKKYLTVEQIMTCVADTCRRFFDRGYSPKDVAVLVSTAKEVEHYKYELLKAMRKKRVVQLSDACDMLGDHIVLDSVRRFSGLERSIVFGIHPRTADPAILPNVLICLASRAKQHLYIFPWGGH
notes: Schlafen 11 (SLFN11), human, full length, nuclease active site mutant E209A; Made by site-directed mutagenesis of the wild-type construct; source: Trichoplusia ni High Five insect cells, expressed and purified as the wild-type protein
B1: binds [2].

B2: full-length human SLFN11 (Schlafen 11), wild type (enzyme, UniProt Q7Z7L1 1-901, looked up)
chain: B1 chain with A209E
notes: Schlafen 11 (SLFN11), human, full length; domains: Slfn core 1-353, linker 354-576, helicase 577-901; residues 7-899 built in the model; The construct has an HRV 3C cleavage site after the N-terminal double FLAG tag; The protein was eluted with Flag peptide and no cleavage is described; It is in a monomer-dimer equilibrium in solution; also called SLFN11^wt; source: SEC for cryo-EM samples
In the case of B2, the “stoichiometry N” value [3] is reported as 2.
